{
  "source": "patent US20250134379A1",
  "about": "“Methods for Localization of Cancerous Tissue Using Fluorescent Molecular Imaging Agent for Diagnosis or Treatment” (Vergent Bioscience, Inc., priority 2023, published 2025)",
  "key": {"cancerous tissue": {"test_system": "cancerous tissue", "experiment": "Preclinical / animal model studies of duration of VGT-309 fluorescence in tissue", "assay_type": "in vivo", "description": "There are several molecular imaging agents that are currently in various stages of development and testing, but of these agents VGT-309 is particularly advantageous. VGT-309 targets and covalently binds to cathepsin targets, which are present in larger amounts in solid tumors and tumor margins than in normal tissues. When this binding occurs, the quencher is cleaved from the molecule and VGT-309 becomes “active” at which point the tumor will fluoresce under near-infrared (NIR) light."}, "tumor [1]": {"test_system": "tumor", "experiment": "Intraoperative NIR imaging of patients given VGT-309 before surgery", "assay_type": "in vivo, human", "settings": "patient", "description": "A patient appeared to have a localized tumor, as identified by the preoperative scans, but the surgeon identified lymph node spread during resection with VGT-309. […] Absent from these scans were any evidence of spread to other areas of the lungs or the lymph nodes. […] […] The surgeon also visually examined and biopsied the proximal lymph nodes, neither of which indicated the tumor had spread. […] The surgeon was therefore able to perform a biopsy, which confirmed that the cancer had spread, and as a result re-staged the patient in real-time and performed a radical lymph node dissection. At the end of the procedure, the surgeon removed all traces of the cancer.\nHowever, it was confirmed under NIR that this abnormal lung tissue was in fact cancerous."}, "tumor [2]": {"test_system": "tumor", "experiment": "Phase 2 study of VGT-309 in Australia: clinically significant events (CSEs) during tumor removal", "assay_type": "in vivo, human", "settings": "Phase 2 study in Australia", "description": "CSEs are one way to measure whether an imaging agent, such as VGT-309, adds a clinical benefit to the diagnosis and treatment process. In this context, CSEs generally fall into one of three categories: (1) localization of hard-to-find tumors, (2) identification of positive resection margins, and (3) identification of additional primary and metastatic lesions that were not previously detected using existing technologies. […] In a Phase 2 study of VGT-309 in Australia, one third of patients experienced a […]"}},
  "data": [
    {"smiles": "CC1(C)C(/C=C/C2=C(Cl)C(=C/C=C3/N(CCCCCC(=O)NCCNC(=O)c4c(F)c(F)c(OCC(=O)[C@H](CCCCNC(=O)CCCCCN5/C(=C/C=C/C=C/C=C\\C6=[N+](CCCCS(=O)(=O)O)c7ccc8ccccc8c7C6(C)C)C(C)(C)c6c5ccc5ccccc65)NC(=O)[C@H](Cc5ccccc5)NC(=O)OCc5ccccc5)c(F)c4F)c4ccc5cc(S(=O)(=O)O)ccc5c4C3(C)C)/CCC2)=[N+](CCCS(=O)(=O)O)c2ccc(N(CCCS(=O)(=O)O)CCCS(=O)(=O)O)cc21", "note": "[VGT-309]", "values": [
      {"measurement": "time following administration out to which VGT-309 may continue to emit a signal in tissue", "setting": "cancerous tissue; animal model studies suggest", "result": "seven days"},
      {"measurement": "time after administration at which VGT-309 can fluoresce cancerous tissue", "setting": "cancerous tissue; based on preclinical studies", "result": "two hours to four days"},
      {"measurement": "detection of lymph node spread under NIR", "setting": "tumor [1]; Example 2, 0.16 mg/kg, approximately 21 hours prior to surgery, biopsy confirmed that the cancer had spread", "result": "unexpected fluorescence in a more distant lymph node"},
      {"measurement": "identification of metastatic spread / additional tumors under NIR", "setting": "tumor [1]; Example 3, 0.32 mg/kg, approximately 18.5 hours prior to surgery", "result": "identify additional tumors using NIR"},
      {"measurement": "fraction of patients who experienced a clinically significant event (CSE)", "setting": "tumor [2]", "result": "one third"}
    ]}
  ]
}
